Source: patent US9439839B2, “Cosmetic solution, method for producing cosmetic solution, and cosmetic method” (priority 2011, dated 2016)

Assay: evaluation of moisturizing power with oil water content measuring apparatus
Format: in vivo
Conditions: cosmetic solution diluted twice by water, applied to forearm flexor side; compared with propylene glycol and 1,3-butylene glycol
Description: For the evaluation of moisturizing power, an oil water content measuring apparatus (WSK-P500U manufactured by Wave Cyber) was used. This measuring apparatus indicates the water content of the part of the skin to be measured by a relative value of 0 to 99. The part to be measured was the forearm flexor side.

OCC(O)CO [glycerin]
moisturizing power: highest moisturizing power
